The test system of one experiment is rituximab. As to conditions: forward and reverse sequences; not bound by other anti-CD20 mAbs; cited from earlier work. The source says:
The peptide […] from the resem ...

The test system of a further experiment is rituximab (RTX). In words: First screen of the resemblance-ranking peptide library with RTX, fluorescent immunostaining. The experiment is classed as binding. The conditions noted are these: RTX 30 µg/mL; among 160,000 peptides.

Experimental for rituximab (RTX): Peptide microarrays: A peptide library of 160,000, peptides as well other peptide microarrays for the substitutions and the KD analysis, were fabricated via the ultra-high-density peptide microarray technology of AXXELERA (Karlsruhe, Germany) [49]. The AXXELERA technology allows for the 30 µm-sized square peptide spots with a pitch of 60 µm that corresponds to ca. 28,000 spots/cm^2.
Immunostaining: Peptide microarrays were incubated with the monoclonal anti-CD20 antibody rituximab (Sigma-Aldrich, Steinheim, Germany) with concentrations depending on the type of experiment, diluted in PBS-T (Phosphate Buffered Saline with Tween) overnight at 4 °C. A rituximab concentration of 30 µg/mL was used for the first screen of the entire resemblance-ranking peptide library. Then, the peptide chips were stained with the fluorescently labeled secondary anti-human-IgG antibodies (Jackson ImmunoResearch, Philadelphia, PA, USA). The signals from the spots were read out with the confocal scanner Innoscan 1100 AL. The scans were performed in the red channel (635 nm), with a resolution of 2 µm/pixel, a speed of 35 µm/s, and a PMT gain of 9.

Consider ELWKPW, for which the binding to rituximab entry in the experiment on rituximab is given as “bind rituximab”.
LWKPWLQPCC: the “ratio to the maximum signal value” in the experiment with rituximab (RTX) is 0.13.
Take WPKWLE: the binding to rituximab entry with rituximab is “bind rituximab”.

The values above are taken from publication PMC8999133, “Resemblance-Ranking Peptide Library to Screen for Binders to Antibodies on a Peptidomic Scale” (International Journal of Molecular Sciences, 2022).
